Results from patent US9090651B2, “Helix 12 directed pharmaceutical products” (ENDORECHERCHE, INC., priority 2004, dated 2015).
Read-outs that look alike come from different tables or passages of the source.

Assays:
[1] = tested on: Shionogi mouse mammary carcinoma cells; experiment: Androgenic/antiandrogenic activity on DHT-stimulated Shionogi cell growth; type: cell-based; conditions: Mus musculus
[2] = target: T1, Human Androgen Receptor (Homo sapiens, UniProt P10275); experiment: Androgen receptor binding assay (hydroxylapatite, [3H]R1881, cytosol of transfected HEK-293 cells); conditions: % RBA=100×IC50 R1881/IC50 compound, transfected cells
T1 sequence (P10275 1-920): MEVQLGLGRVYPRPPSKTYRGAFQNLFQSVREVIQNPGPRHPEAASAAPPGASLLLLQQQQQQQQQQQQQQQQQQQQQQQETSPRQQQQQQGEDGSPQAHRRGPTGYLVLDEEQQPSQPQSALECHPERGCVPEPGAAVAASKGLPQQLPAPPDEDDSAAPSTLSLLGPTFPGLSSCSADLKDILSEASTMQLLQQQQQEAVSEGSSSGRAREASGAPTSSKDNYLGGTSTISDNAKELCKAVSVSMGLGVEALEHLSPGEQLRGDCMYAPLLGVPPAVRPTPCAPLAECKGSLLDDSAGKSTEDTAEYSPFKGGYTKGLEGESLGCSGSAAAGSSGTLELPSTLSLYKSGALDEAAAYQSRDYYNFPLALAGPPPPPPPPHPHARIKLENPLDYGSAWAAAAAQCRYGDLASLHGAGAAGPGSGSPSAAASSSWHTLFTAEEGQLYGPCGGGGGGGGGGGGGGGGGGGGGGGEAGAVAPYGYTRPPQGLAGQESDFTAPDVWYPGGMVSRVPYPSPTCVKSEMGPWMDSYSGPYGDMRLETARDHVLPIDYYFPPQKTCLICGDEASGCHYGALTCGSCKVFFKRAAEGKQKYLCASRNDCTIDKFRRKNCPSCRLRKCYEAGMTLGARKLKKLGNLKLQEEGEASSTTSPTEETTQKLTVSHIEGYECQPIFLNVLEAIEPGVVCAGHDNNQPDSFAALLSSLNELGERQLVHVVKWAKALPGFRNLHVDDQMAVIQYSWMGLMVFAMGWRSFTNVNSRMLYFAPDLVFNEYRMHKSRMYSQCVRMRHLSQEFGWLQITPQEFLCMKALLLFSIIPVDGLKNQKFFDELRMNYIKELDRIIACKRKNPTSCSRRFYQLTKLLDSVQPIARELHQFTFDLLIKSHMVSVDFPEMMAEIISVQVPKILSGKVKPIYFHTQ

[3] = read-out: Shionogi Antiandrogenic activity IC50 (nM), inhibition of DHT-stimulated Shionogi cell number

Row | SMILES | IC50 [1, 3] | Androgen Receptor Binding (%) Human RBA R1881 = 100 [2] | IC50 ([1]; inhibition of DHT-stimulated Shionogi cell number, read-out: Shionogi Antiandrogenic activity IC50)
1 | O=C1C=C2CCC3C(CC[C@@]4(CCOc5cccc(CN6CCCCC6)c5)C3CC[C@@H]4O)C2CC1 (stereo partly drawn) [EM-6564] | 66 nM | 3.6% | 
2 | CCCN(Cc1cccc(OCC[C@]23CCC4C(CCC5CC(=O)CC[C@@]54C)C2CC[C@@H]3O)c1)C1CCCC1 (stereo partly drawn) [EM-6567] | 5.5 nM | 126% | 
3 | O=C1C=C2CCC3C(CC[C@@]4(CCOc5cccc(CNC6CCCCC6)c5)C3CC[C@@H]4O)C2CC1 (stereo partly drawn) [EM-6577] | 57 nM | 3.4% | 
4 | CCC(NC1CCOCC1)c1cccc(OCC[C@]23CCC4C(CCC5CC(=O)CC[C@@]54C)C2CC[C@@H]3O)c1 (stereo partly drawn) [EM-6666] | 0.16 nM | 211.3% | 
5 | CCC(NC(C)CC(F)(F)F)c1cccc(OCC[C@]23CCC4C(CCC5CC(=O)CC[C@@]54C)C2CC[C@@H]3O)c1 (stereo partly drawn) [EM-6700] | 49.9 nM | 670% | 
6 | CC(C)(NCc1ccccc1)c1cccc(OCC[C@]23CCC4C(CCC5CC(=O)CC[C@@]54C)C2CC[C@@H]3O)c1 (stereo partly drawn) [EM-6708] | 27.5 nM | 62% | 
7 | CCCN(C1CC1)C(CC)c1cccc(OCC[C@]23CCC4C(CCC5CC(=O)CC[C@@]54C)C2CC[C@@H]3O)c1 (stereo partly drawn) [EM-6735] | 3.2 nM | 2385% | 
8 | CCCC(NC1CCCCC1)c1cccc(OCC[C@]23CCC4C(CCC5CC(=O)CC[C@@]54C)C2CC[C@@H]3O)c1 (stereo partly drawn) [EM-6737] | 1.6 nM | 292.5% | 
9 | CCCC(NC1CCCC1)c1cccc(OCC[C@]23CCC4C(CCC5CC(=O)CC[C@@]54C)C2CC[C@@H]3O)c1 (stereo partly drawn) [EM-6738] | 1.7 nM | 174.2% | 
10 | CCCC(NC1CCCC1)c1cccc(OCC[C@]23CCC4C(CCC5CC(=O)CC[C@@]54C)C2CCC3=O)c1 (stereo partly drawn) [EM-6739] | 2.4 nM | 132.5% | 
11 | CC(C)(c1cccc(OCC[C@]23CCC4C(CCC5CC(=O)CC[C@@]54C)C2CC[C@@H]3O)c1)N1CCCCC1 (stereo partly drawn) [EM-6740] | 15 nM | 42.5% | 
12 | CCC(NC1CCOCC1)c1cccc(OCC[C@]23CCC4C(CCC5=CC(=O)CC[C@@]54C)C2CCC3O)c1 (stereo partly drawn) [EM-6765] | 0.2 nM | 34.6% | 
13 | CCC(NC1CCOCC1)c1cccc(OCC[C@]23CCC4C(CCC5=CC(=O)CC[C@@]54C)C2CCC3(C)O)c1 (stereo partly drawn) [EM-6766] | 0.5 nM | 55.9% | 
14 | CCC(NC1CCOCC1)c1cccc(OCC[C@]23CCC4C(CCC5CC=CC[C@@]54C)C2CCC3O)c1 (stereo partly drawn) [EM-6791] | 45.5 nM | 50.2% | 
15 | CCC(NC1CCS(=O)(=O)CC1)c1cccc(OCC[C@]23CCC4C(CCC5CC(=O)CC[C@@]54C)C2CCC3O)c1 (stereo partly drawn) [EM-6836] | 2.4 nM | 62% | 
16 | CCC(NC1CCSCC1)c1cccc(OCC[C@]23CCC4C(CCC5CC(=O)CC[C@@]54C)C2CCC3O)c1 (stereo partly drawn) [EM-6844] | 2.1 nM | 506% | 
17 | O=C1C=C2CCC3C(CC[C@@]4(CCOc5cccc(C[S+]([O-])c6ccccc6)c5)C3CC[C@@H]4O)C2CC1 (stereo partly drawn) [EM-6847] | 46 nM | 3.2% | 
18 | C[C@]12CCC(=O)CC1CCC1C2CC[C@]2(CCOc3cccc(CNc4ccncc4)c3)C(O)CCC12 (stereo partly drawn) [EM-6856] | 32 nM | 6% | 
19 | CCC(Nc1ccncc1)c1cccc(OCC[C@]23CCC4C(CCC5CC(=O)CC[C@@]54C)C2CCC3O)c1 (stereo partly drawn) [EM-6857] | 63 nM | 5% | 
20 | CCCCS(=O)(=O)Cc1cccc(OCC[C@]23CCC4C5CCC(=O)C=C5CCC4C2CC[C@@H]3O)c1 (stereo partly drawn) [EM-6861] | 32 nM | 3.0% | 
21 | CCC(NC1CCOCC1)c1cccc(OCC[C@]23CCC4C(CCC5Cc6n[nH]cc6C[C@@]54C)C2CCC3O)c1 (stereo partly drawn) [EM-6867] | 4.4 nM | 11.3% | 
22 | CCCC(NC(CC)CC)c1cccc(OCC[C@]23CCC4C(CCC5CCOC[C@@]54C)C2CCC3O)c1 (stereo partly drawn) [EM-6876] |  | 44.4% | 16 nM
23 | CCCCC(NC1CCCCC1)c1cccc(OCC[C@]23CCC4C(CCC5CC(=O)CC[C@@]54C)C2CCC3=O)c1 (stereo partly drawn) [EM-6894] | 4.1 nM | 129.7% | 

Row | SMILES | IC50 [1, 3] | Androgen Receptor Binding (%) Human RBA R1881 = 100 [2] | IC50 ([1]; inhibition of DHT-stimulated Shionogi cell number, read-out: Shionogi Antiandrogenic activity IC50)
24 | CCCCC(NC1CCCCC1)c1cccc(OCC[C@]23CCC4C(CCC5CC(=O)CC[C@@]54C)C2CCC3O)c1 (stereo partly drawn) [EM-6895] | 4.2 nM | 115.5% | 
25 | CCCCC(NC(CC)CC)c1cccc(OCC[C@]23CCC4C(CCC5CC(=O)CC[C@@]54C)C2CCC3=O)c1 (stereo partly drawn) [EM-6896] | 3.2 nM | 314.6% | 
26 | CC(C)CNC1(c2cccc(OCC[C@]34CCC5C(CCC6CC(=O)CC[C@@]65C)C3CCC4O)c2)CC1 (stereo partly drawn) [EM-6905] | 4.4 nM | 274.8% | 
27 | CCCCC(NC(CC)CC)c1cccc(OCC[C@]23CCC4C(CCC5CC(=O)CC[C@@]54C)C2CCC3O)c1 (stereo partly drawn) [EM-6906] | 0.5 nM | 372% | 
28 | CCC(NC1CCOCC1)c1cccc(OCC[C@]23CCC4C(CCC5Cc6nocc6C[C@@]54C)C2CCC3O)c1 (stereo partly drawn) [EM-6908] | 7.4 nM | 13% | 
29 | CCC(NC(C)C)c1cccc(OCC[C@]23CCC4C(CCC5=CC(=O)CC[C@@]54C)C2CC[C@@H]3O)c1 (stereo partly drawn) [EM-6960] | < 0.1 nM | 147% | 
30 | COCC(NC1CCCCC1)c1cccc(OCC[C@]23CCC4C(CCC5CC(=O)CC[C@@]54C)C2CCC3O)c1 (stereo partly drawn) [EM-6972] | 1.2 nM | 151% | 
31 | CCC(NC1CCOCC1)c1cccc(OCC[C@]23CCC4C(CCC5CC(F)=CC[C@@]54C)C2CCC3O)c1 (stereo partly drawn) [EM-6996] | 37.3 nM | 32% | 
32 | CCC(CC)CNC(CC)(CC)c1cccc(OCC[C@]23CCC4C(CCC5CC(=O)CC[C@@]54C)C2CCC3O)c1 (stereo partly drawn) [EM-7001] | 17 nM | 1981% | 
33 | CCC(CC)CNC(CC)(CC)c1cccc(OCC[C@]23CCC4C(CCC5CC(=O)CC[C@@]54C)C2CCC3=O)c1 (stereo partly drawn) [EM-7002] | 23 nM | 2088% | 
34 | CC[C@H](NC1CCCCC1)c1cccc(OCC[C@]23CCC4C(CCC5CC(=O)CC[C@@]54C)C2CCC3O)c1 (stereo partly drawn) [EM-7055] | 0.64 nM | 242% | 
35 | CC[C@@H](NC1CCCCC1)c1cccc(OCC[C@]23CCC4C(CCC5CC(=O)CC[C@@]54C)C2CCC3O)c1 (stereo partly drawn) [EM-7062] | 0.7 nM | 535% | 
36 | CC[C@@H](NC1CCCCC1)c1cccc(OCC[C@]23CCC4C(CCC5CC(=O)CC[C@@]54C)C2CCC3=O)c1 (stereo partly drawn) [EM-7063] | 0.51 nM | 115% | 
37 | CCC(NC1CCCCC1)c1cncc(OCC[C@]23CCC4C(CCC5CC(=O)CC[C@@]54C)C2CCC3O)c1 (stereo partly drawn) [EM-7093] | 0.16 nM | 361.8% | 
38 | CCC(NC1CCCCC1)c1cncc(OCC[C@]23CCC4C(CCC5=CC(=O)CC[C@@]54C)C2CCC3O)c1 (stereo partly drawn) [EM-7094] | 1.4 nM | 70.8% | 
39 | CCC(NCC1CCCO1)c1ccnc(OCC[C@]23CCC4C(CCC5CC(=O)CC[C@@]54C)C2CC[C@@H]3O)c1 (stereo partly drawn) [EM-7104] | 2.8 nM | 54.3% | 
40 | CCC(c1cncc(OCC[C@]23CCC4C(CCC5CC(=O)CC[C@@]54C)C2CCC3O)c1)N1CCOCC1 (stereo partly drawn) [EM-7106] | 81 nM | 2.5% | 
41 | CCC(NC1CCOCC1)c1cncc(OCC[C@]23CCC4C(CCC5CC(=O)CC[C@@]54C)C2CCC3O)c1 (stereo partly drawn) [EM-7107] | 1 nM | 66.2% | 
42 | CCC1COCC(c2cccc(OCC[C@]34CCC5C(CCC6CC(=O)CC[C@@]65C)C3CCC4O)c2)N1 (stereo partly drawn) [EM-7111] | 13 nM | 39% | 
43 | CN(C)CC(NC1CCCCC1)c1cccc(OCC[C@]23CCC4C(CCC5CC(=O)CC[C@@]54C)C2CCC3O)c1 (stereo partly drawn) [EM-7131] | 35 nM | 125.7% | 
44 | CCC(NC1CCCC1)c1cc(OCC[C@]23CCC4C(CCC5=CC(=O)CC[C@@]54C)C2CCC3O)ccn1 (stereo partly drawn) [EM-7165] | 1.4 nM | 26.6% | 
45 | CCC(NC1CCCCC1)c1cc(OCC[C@]23CCC4C(CCC5=CC(=O)CC[C@@]54C)C2CCC3O)ccn1 (stereo partly drawn) [EM-7166] | 3.5 nM | 22.3% | 
